Measurements as given in ChEMBL document CHEMBL1201862, “PubChem BioAssay data set” (2004).
“And” between values parts separate entries of the source, which are not always exact repeats. Identical values can stand only once. One block for each compound: values may come before it. The source made the active and inactive calls.

Key:
Estrogen receptor beta [1] = molecular target: T1, Estrogen receptor beta (Homo sapiens, UniProt Q92731);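 further: recombinant ER-beta bound to coactivator SRC1 peptide in presence of estradiol agonist; inhibitors block coactivator peptide binding and lower the FRET signal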
Estrogen receptor beta [2] = molecular target: T1, Estrogen receptor beta; test: blockers of SRC-3 recruitment to ERβ – biochemical, ELISA, streptavidin-HRP readout, orthogonal assay, confirmation (AID 1060)
[3] = molecular target: Glyceraldehyde-3-phosphate dehydrogenase (Homo sapiens, UniProt P04406)
Bcl-2-related protein A1 [4] = molecular target: T2, Bcl-2-related protein A1 (Mus musculus, UniProt Q07440); test: Bfl-1 binding inhibitors, SAR follow-up, biochemical, fluorescence polarization (AID 1070)
T2 sequence (Q07440 whole entry): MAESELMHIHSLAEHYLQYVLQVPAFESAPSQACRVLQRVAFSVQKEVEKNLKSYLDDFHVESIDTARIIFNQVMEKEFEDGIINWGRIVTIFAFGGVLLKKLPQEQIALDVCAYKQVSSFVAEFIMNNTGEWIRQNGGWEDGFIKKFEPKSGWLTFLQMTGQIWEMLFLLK

Bcl-2-related protein A1 [5] = molecular target: T2, Bcl-2-related protein A1; test: small-molecule antagonists of Bfl-1/BH3 interaction – biochemical, TR-FRET, mouse Bfl-1, confirmation (AID 621);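 further: TR-FRET binding of GST-Bfl-1 to FITC-labelled Bid peptide via terbium antibody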
[6] = molecular target: Lytic switch protein BZLF1 (Epstein-Barr virus (strain B95-8) (HHV-4) (Human herpesvirus 4), UniProt P03206); test: inhibition of BZLF1 ZTA DNA binding – biochemical, fluorescence polarization, Epstein-Barr virus, 1536-well, counter-screen for EBNA-1 inhibitor project, dose response (AID 2377); parameters: species or system human gammaherpesvirus 4;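 further: fluorescence polarization of Cy5-labelled ZRE DNA probe bound by purified Zta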
[7] = molecular target: Epstein-Barr nuclear antigen 1 (Epstein-Barr virus (strain B95-8) (HHV-4) (Human herpesvirus 4), UniProt P03211); test: inhibition of EBV nuclear antigen 1 DNA binding – biochemical, fluorescence polarization, 1536-well, dose response (AID 2381); parameters: species or system human gammaherpesvirus 4;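 further: fluorescence polarization of a Cy5 DNA probe bound by EBNA-1 protein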
Estrogen receptor = Estrogen receptor (Homo sapiens, UniProt P03372);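 further: potency for inhibiting coactivator peptide recruitment to the receptor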
[8] = Trypanosoma cruzi growth suppression in host cells – NIH3T3 host cells, beta-gal luminescence, confirmation (AID 2044); format: functional, cell-based;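 further: intracellular parasites grown in NIH/3T3 mouse fibroblasts as host cells; luminescent beta-galactosidase reporter signal from transgenic T. cruzi replicating inside host cells; inhibitors lower the luminescence signal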
[9] = fluconazole-exposed Candida albicans growth modulators – fluorescence, retest, confirmation (AID 2467); format: functional, cell-based
[10] = molecular target: T3, Ubiquitin-conjugating enzyme E2 N (Homo sapiens, UniProt P61088); format: functional;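 further: Dose-response confirmation in a TR-FRET assay detecting UBC13-driven polyubiquitin chain formation, inhibition measured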
T3 sequence (P61088 whole entry): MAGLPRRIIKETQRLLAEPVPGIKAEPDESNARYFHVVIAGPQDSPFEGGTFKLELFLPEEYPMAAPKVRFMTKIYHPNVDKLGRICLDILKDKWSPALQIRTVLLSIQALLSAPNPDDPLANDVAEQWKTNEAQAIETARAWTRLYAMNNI

[11] = molecular target: T4, Microphthalmia-associated transcription factor (Homo sapiens, UniProt O75030); test: reducers of TRPM1 reporter luminescence, concentration series – cell-based, SK-MEL-5, cherry-picked, set 3, MITF inhibitor project, dose response (AID 493073); format: functional;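 further: SK-MEL-5 melanoma cells with luciferase driven by the MITF target TRPM1 promoter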
T4 sequence (O75030 whole entry): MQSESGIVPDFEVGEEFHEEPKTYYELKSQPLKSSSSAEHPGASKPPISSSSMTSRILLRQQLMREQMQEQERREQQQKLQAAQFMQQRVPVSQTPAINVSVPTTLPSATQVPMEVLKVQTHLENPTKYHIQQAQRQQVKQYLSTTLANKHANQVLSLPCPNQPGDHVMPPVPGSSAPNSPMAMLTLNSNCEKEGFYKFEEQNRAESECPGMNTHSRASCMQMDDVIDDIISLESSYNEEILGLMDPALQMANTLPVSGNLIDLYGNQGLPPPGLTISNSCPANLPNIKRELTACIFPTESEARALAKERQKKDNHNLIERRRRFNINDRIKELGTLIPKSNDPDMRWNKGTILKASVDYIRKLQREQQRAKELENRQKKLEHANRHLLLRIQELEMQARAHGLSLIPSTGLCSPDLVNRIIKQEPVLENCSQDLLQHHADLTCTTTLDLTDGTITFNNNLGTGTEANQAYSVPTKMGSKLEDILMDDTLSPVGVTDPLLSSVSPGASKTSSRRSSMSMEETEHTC

INS1 = test: INS-1E survival protection against cytokine death – cell-based, luminescence, retest, dose response (AID 449756); format: functional;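 further: cell death triggered by IL-1 beta plus TNF-alpha plus IFN-gamma mixture; protective hits raise ATP signal compared with cytokine alone wells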
A-375 = test: MITF: Counter assay: A375 proliferation Measured in Cell-Based System Using Plate Reader - 2084-03_Inhibitor_Dose_DryPowder_Activity. [Related pubchem assays (depositor defined):AID488944]; format: functional; settings: Homo sapiens
cells [12] = test: cells
[13] = NIH3T3 cell viability loss – ATP luminescence, mouse fibroblasts, counter-screen, dose response (AID 2010); format: functional, cell-based;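 further: cells exposed to compound for about 90 hours before reading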
[14] = molecular target: Protein-tyrosine kinase 2-beta (Homo sapiens, UniProt Q14289);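 further: potency of inhibitors of PYK2 kinase phosphorylation of poly-GT substrate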
cells [15] = format: functional, cell-based; settings: HEK-CNG
[16] = molecular target: T5, Carboxy-terminal domain RNA polymerase II polypeptide A small phosphatase 1 (Homo sapiens, UniProt Q9GZU7); test: CTDSP1 inhibitors, concentration-response, biochemical, absorbance readout, ultra-high-throughput screen actives (AID 540297); format: functional
T5 sequence (Q9GZU7 whole entry): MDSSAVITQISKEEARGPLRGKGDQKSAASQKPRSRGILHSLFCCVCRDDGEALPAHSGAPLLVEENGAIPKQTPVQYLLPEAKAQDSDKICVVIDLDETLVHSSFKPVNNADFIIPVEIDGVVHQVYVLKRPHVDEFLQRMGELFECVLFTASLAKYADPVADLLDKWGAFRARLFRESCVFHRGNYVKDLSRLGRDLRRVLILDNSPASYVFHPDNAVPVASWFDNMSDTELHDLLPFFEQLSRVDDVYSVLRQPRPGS

Galanin receptor type 3 = molecular target: T6, Galanin receptor type 3 (Homo sapiens, UniProt O60755); test: Fluorescence-based cell-based primary high throughput dose response assay to identify antagonists of the Galanin Receptor 3 (GalR3).; format: functional
T6 sequence (O60755 whole entry): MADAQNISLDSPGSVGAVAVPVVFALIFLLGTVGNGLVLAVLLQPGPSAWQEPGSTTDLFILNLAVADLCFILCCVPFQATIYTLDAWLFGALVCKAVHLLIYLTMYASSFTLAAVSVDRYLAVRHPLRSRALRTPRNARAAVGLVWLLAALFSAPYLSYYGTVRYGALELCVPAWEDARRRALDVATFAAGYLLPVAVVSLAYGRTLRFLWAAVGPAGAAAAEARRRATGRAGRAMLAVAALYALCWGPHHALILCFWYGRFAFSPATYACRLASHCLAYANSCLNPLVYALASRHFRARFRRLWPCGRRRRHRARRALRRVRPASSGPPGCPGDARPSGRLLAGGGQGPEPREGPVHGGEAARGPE

[17] = molecular target: Dual specificity protein phosphatase 3 (Homo sapiens, UniProt P51452); test: VHR phosphatase inhibition, dose response, selectivity assay for STEP inhibitor project, biochemical (AID 602374); format: functional; settings: read-out: IC50_Mean
BJ [18] = test: BJ-TERT fibroblast viability loss – cell-based, RAS-independent, luminescence, dose response (AID 1933); format: functional; settings: Homo sapiens
[19] = molecular target: Peroxisome proliferator-activated receptor gamma/Nuclear receptor coactivator 2 (Homo sapiens, UniProt P37231); format: functional;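 further: agonist potency for raising coactivator recruitment to the receptor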
BJ [20] = test: cells; format: functional, cell-based; settings: Homo sapiens
BJ [21] = test: BJ-TERT-LT-ST fibroblast viability loss – cell-based, RAS-independent, luminescence, dose response (AID 1935); format: functional; settings: Homo sapiens;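 further: BJ fibroblasts immortalized with TERT plus LT and ST oncogenes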
[22] = molecular target: T7, Tyrosine-protein phosphatase non-receptor type 11 (Homo sapiens, UniProt Q06124); test: PTPN11 enzyme inhibitors – biochemical, selectivity assay for STEP inhibitor project, dose response (AID 602367); format: functional; settings: read-out: IC50_Mean
T7 sequence (Q06124 whole entry): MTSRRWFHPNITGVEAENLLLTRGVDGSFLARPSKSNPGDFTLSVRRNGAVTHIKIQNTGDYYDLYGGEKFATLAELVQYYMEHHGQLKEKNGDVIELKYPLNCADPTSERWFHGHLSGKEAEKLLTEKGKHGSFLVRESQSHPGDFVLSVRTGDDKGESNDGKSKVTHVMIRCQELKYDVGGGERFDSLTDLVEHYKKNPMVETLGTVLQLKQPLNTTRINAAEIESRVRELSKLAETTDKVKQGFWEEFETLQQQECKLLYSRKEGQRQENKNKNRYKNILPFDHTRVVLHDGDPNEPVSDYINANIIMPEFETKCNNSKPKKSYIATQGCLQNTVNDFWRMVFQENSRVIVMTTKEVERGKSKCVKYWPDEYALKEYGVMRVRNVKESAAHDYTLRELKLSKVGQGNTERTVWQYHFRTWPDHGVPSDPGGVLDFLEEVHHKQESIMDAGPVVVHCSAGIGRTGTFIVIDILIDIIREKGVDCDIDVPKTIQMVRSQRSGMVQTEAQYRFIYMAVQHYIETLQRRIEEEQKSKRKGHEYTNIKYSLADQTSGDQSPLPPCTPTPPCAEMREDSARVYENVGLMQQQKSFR

Melanocortin receptor 4 = Melanocortin receptor 4 (Homo sapiens, UniProt P32245); format: functional, cell-based;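 further: Cell-based assay with luminescence read-out, confirmatory dose-response testing for agonist activity of biased ligands at MC4R; human U2OS cells with tagged receptor and beta-arrestin; potency of agonists that increase receptor coupling to beta-arrestin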
[23] = DRD fibroblast viability loss – cell-based, non-viral oncogenic, luminescence, dose response (AID 1934); format: functional; settings: Homo sapiens
[24] = molecular target: Peroxisome proliferator-activated receptor gamma/Nuclear receptor coactivator 1 (Homo sapiens, UniProt P37231); format: functional;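 further: agonist potency as compounds enhance coactivator SRC-1 recruitment to PPARgamma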
[25] = molecular target: T8, Tyrosine-protein phosphatase non-receptor type 5 (Homo sapiens, UniProt P54829); test: PTPN5 enzyme inhibition – biochemical, fluorescence intensity, uHTS hits, confirmation (AID 602372); format: functional; settings: read-out: IC50_Mean
T8 sequence (P54829 whole entry): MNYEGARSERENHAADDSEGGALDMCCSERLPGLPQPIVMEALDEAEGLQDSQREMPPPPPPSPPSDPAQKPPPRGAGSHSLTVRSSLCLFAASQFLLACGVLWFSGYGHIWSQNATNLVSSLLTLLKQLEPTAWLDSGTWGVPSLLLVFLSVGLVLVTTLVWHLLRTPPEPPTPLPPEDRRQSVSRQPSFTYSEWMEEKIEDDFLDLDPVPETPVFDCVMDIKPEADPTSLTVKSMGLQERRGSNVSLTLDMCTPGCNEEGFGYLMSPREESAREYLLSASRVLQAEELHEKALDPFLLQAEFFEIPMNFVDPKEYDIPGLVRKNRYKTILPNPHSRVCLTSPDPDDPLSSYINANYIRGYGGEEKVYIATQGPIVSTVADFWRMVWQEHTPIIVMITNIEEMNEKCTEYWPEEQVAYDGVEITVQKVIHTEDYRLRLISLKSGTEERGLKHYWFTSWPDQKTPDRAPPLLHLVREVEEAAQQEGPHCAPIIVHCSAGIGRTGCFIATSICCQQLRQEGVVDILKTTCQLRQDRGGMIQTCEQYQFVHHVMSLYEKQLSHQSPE

[26] = molecular target: Peroxisome proliferator-activated receptor gamma/Nuclear receptor coactivator 3 (Homo sapiens, UniProt P37231); format: functional;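 further: agonist potency for raising coactivator recruitment to the receptor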

T1 sequence (Q92731 whole entry): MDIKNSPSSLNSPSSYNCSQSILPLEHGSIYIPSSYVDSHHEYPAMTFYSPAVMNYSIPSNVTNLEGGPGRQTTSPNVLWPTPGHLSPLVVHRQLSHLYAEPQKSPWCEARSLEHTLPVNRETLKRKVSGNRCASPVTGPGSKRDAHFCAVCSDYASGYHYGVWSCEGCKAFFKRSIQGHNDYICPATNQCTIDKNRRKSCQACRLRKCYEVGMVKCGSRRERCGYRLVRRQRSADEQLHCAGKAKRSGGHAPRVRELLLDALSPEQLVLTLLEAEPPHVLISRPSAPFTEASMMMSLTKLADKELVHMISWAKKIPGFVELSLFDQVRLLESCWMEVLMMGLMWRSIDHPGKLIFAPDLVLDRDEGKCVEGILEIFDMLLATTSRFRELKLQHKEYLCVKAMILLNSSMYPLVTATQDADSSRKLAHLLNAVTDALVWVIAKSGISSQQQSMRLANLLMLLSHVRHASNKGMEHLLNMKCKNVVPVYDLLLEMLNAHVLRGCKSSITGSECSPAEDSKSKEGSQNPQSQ
Lytic switch protein BZLF1, sequence (P03206 whole entry): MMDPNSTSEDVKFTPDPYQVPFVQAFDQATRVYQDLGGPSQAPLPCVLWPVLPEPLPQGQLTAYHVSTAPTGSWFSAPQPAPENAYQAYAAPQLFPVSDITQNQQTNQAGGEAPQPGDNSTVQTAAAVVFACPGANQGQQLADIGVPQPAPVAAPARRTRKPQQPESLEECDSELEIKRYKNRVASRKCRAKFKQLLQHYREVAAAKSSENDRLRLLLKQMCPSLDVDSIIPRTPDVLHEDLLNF
Estrogen receptor, sequence (P03372 whole entry): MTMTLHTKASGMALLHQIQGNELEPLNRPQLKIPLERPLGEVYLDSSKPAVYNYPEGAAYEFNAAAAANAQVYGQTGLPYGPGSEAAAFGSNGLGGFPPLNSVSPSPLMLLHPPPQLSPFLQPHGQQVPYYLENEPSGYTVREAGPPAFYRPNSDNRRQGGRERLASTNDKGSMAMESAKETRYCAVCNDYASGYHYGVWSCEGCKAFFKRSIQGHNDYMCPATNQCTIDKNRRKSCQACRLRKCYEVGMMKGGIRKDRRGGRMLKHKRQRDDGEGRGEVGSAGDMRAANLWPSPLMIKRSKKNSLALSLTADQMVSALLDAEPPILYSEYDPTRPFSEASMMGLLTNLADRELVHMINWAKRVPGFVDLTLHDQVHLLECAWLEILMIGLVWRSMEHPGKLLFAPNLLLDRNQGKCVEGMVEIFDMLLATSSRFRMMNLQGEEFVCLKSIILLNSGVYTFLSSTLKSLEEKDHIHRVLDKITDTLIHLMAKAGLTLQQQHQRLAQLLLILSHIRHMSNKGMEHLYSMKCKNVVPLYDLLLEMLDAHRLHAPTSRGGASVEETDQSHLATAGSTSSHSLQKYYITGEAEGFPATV
Epstein-Barr nuclear antigen 1, sequence (P03211 whole entry): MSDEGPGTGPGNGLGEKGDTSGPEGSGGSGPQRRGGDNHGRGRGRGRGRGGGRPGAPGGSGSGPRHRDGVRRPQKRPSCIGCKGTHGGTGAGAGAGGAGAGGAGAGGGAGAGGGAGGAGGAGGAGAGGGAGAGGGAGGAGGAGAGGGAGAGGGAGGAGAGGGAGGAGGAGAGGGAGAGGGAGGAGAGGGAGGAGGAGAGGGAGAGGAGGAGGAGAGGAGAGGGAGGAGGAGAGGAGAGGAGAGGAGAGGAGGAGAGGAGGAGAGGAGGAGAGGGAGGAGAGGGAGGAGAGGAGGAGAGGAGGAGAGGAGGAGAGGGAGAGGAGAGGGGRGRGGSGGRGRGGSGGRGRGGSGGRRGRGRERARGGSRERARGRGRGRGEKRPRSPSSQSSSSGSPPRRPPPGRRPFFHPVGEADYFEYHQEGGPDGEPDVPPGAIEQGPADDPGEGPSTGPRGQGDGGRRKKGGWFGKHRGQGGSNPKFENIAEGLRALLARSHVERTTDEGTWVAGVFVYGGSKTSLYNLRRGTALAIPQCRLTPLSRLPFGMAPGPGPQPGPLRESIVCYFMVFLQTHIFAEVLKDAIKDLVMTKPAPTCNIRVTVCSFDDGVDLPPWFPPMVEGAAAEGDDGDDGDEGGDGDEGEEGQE
Protein-tyrosine kinase 2-beta, sequence (Q14289 whole entry): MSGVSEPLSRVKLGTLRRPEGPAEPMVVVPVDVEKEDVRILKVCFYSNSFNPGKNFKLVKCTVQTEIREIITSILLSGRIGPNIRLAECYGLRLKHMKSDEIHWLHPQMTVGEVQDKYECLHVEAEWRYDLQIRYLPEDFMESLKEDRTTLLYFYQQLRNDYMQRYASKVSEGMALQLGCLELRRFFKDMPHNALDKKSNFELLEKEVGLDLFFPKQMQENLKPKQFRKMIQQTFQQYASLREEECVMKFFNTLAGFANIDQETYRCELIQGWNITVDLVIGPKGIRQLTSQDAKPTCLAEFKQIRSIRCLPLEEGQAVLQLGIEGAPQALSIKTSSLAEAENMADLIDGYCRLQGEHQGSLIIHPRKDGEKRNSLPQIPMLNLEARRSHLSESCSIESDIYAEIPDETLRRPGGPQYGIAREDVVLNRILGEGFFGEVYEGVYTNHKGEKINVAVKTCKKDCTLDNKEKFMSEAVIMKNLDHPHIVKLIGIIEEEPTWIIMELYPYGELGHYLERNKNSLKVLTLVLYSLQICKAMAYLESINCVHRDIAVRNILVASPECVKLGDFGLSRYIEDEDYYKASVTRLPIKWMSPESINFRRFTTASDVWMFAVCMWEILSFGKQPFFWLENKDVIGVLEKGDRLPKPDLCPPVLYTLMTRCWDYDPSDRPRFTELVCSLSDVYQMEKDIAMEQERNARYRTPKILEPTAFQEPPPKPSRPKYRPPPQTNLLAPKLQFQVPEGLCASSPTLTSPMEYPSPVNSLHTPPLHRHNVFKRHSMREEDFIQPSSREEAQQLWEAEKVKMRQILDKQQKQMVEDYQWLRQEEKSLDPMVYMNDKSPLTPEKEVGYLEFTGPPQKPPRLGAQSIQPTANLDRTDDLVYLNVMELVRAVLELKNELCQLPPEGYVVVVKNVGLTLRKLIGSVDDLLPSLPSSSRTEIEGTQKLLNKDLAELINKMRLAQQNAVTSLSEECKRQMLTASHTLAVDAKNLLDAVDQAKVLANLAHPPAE
Glyceraldehyde-3-phosphate dehydrogenase, sequence (P04406 whole entry): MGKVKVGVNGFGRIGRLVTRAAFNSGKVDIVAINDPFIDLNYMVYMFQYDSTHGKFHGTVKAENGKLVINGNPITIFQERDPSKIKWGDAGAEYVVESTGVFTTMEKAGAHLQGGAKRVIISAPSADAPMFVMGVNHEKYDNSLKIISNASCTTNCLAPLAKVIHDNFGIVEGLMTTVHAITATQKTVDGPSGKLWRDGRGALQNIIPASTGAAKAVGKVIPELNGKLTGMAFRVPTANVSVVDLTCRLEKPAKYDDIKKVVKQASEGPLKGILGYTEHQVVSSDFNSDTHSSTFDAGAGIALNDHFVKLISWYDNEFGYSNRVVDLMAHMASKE
Melanocortin receptor 4, sequence (P32245 whole entry): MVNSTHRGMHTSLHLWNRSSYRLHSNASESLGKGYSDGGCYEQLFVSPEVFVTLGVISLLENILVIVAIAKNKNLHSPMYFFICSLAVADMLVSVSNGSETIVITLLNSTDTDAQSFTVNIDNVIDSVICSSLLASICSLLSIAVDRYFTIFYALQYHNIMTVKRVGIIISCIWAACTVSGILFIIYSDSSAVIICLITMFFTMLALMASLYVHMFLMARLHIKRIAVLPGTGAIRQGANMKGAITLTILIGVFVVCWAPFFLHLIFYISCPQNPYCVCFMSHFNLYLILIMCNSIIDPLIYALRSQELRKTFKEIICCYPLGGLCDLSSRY
Dual specificity protein phosphatase 3, sequence (P51452 whole entry): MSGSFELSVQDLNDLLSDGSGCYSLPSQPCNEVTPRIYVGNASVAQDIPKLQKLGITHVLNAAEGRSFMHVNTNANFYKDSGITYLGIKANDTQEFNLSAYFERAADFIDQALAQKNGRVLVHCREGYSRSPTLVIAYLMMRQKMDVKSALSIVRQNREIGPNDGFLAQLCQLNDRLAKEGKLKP

Structure (SMILES): Cc1ccc(S(=O)(=O)Cc2ccc(C(=O)N3CCN(Cc4ccccc4)CC3)o2)cc1
IC50 (Estrogen receptor beta [1]): 8.83 µM (active) | IC50 (Estrogen receptor beta [2]): 19.2 µM (not active)

Structure (SMILES): COc1ccc(C2C=C(c3ccc(Cl)cc3)Nc3nc(NC(C)=O)nn32)cc1 (stereo not given)
IC50 (Estrogen receptor): 21.9 µM (active)

Structure (SMILES): CC1CCC(C(C)C)C(OC(=O)Cn2c(-c3ccc(Br)cc3)[n+](C)c3ccccc32)C1 (stereo not given)
EC50 [8]: < 0.1 µM (active) | EC50 [9]: 227 nM (active) and 290 nM (active) | IC50 [10]: > 20 µM (inactive) | AC50 [11]: 7.12 µM (active) | AC50 (INS1; Rattus norvegicus, INS1): 3.63 µM (active) | AC50 (INS1; ins1): 2.8 µM (active) | AC50 (A-375): 36.8 µM (active) | EC50 (cells [12]): 0.409 µM (active) | EC50 [13]: > 60 µM (not active)

Structure (SMILES): O=C(Cn1nnc(-c2ccccc2NC(=O)c2ccccc2)n1)Nc1ccc2c(c1)OCCO2
IC50 [6]: > 111 µM (not active) | IC50 [7]: 16.4 µM (not active)

Structure (SMILES): O=c1cc(CSc2nnc(-c3cccs3)n2Cc2ccccc2)nc2sc3ccccc3n12
IC50 (Estrogen receptor beta [1]): < 1.56 µM (active) | EC50 (cells [15]): > 29.9 µM (inactive) | IC50 [16]: 5.42 µM (active) | IC50 (Galanin receptor type 3): 0.482 µM (active) | IC50 (Estrogen receptor beta [2]): 19.3 µM (not active)

Structure (SMILES): COc1ccc(-n2nc(C(=O)NCC(=O)Nc3ccccn3)c3ccccc3c2=O)cc1Cl
IC50 [17]: 3.14 µM (active) | EC50 (BJ [18]): 31.5 µM (active) | EC50 [19]: 19.2 µM (not active) | IC50 [14]: > 69.5 µM (not active) | EC50 (BJ [20]): 21.6 µM (active) | EC50 (BJ [21]): > 150 µM (not active) | IC50 [22]: 1.98 µM (active) | EC50 (Melanocortin receptor 4): > 89.2 µM (inactive) | EC50 [23]: 28.5 µM (active) | EC50 [24]: 25.8 µM (not active) | IC50 [25]: 42.3 µM (inactive) | EC50 [26]: 37.7 µM (not active)

The next lines start with the values.

IC50 [3]: > 100 µM (not active) | IC50 (Bcl-2-related protein A1 [4]): > 100 µM (not active) | IC50 (Bcl-2-related protein A1 [5]): > 100 µM (not active)
Structure (SMILES): CN1CCN(C2CC(=O)N(c3ccc(Cl)c(Cl)c3)C2=O)CC1 (stereo not given)

IC50 [6]: > 111 µM (not active) | IC50 [7]: 7.23 µM (active)
Structure (SMILES): CCOc1ccc(NC(=O)C(=O)N/N=C\c2ccc(CNS(=O)(=O)c3ccccc3)o2)cc1

IC50 (Estrogen receptor): > 50 µM (not active)
Structure (SMILES): NC(=O)c1ccc(F)cc1

IC50 (Bcl-2-related protein A1 [4]): > 100 µM (not active) | IC50 (Bcl-2-related protein A1 [5]): > 100 µM (not active)
Structure (SMILES): COc1ncccc1-c1nnn(-c2ccccc2)n1

IC50 [14]: > 69.5 µM (not active)
Structure (SMILES): c1cc2ccc3ccc(CN4CCOCC4)c4ccc(c1)c2c34
